In data set [1] the test system is MCF-7 human breast carcinoma cell line. The data set is described as follows: In vitro antitumor activity assay (SRB), MCF-7. It is filed as cell-based. The text has this:
(§1) HeLa human cervical carcinoma cell line, A-549 human non-small cell lung carcinoma cell line, NCI-H2228 human lung carcinoma cell line, NCI-H460 human lung carcinoma cell line, MDA-MB-231 human breast carcinoma cell line, MCF-7 human breast carcinoma cell line, Bel-7402 human hepatic carcinoma cell line, Hep3B human hepatic carcinoma cell line, QGY-7703 human hepatic carcinoma cell line, MV-4-11 human leukemic cell line, DAUDI human leukemic cell line, Jurkat human leukemic cell line, A498 renal carcinoma cell line, LoVo human colon carcinoma cell line, HCT1116 human colon carcinoma cell line, A431 human skin carcinoma cell line, PANC-1 human pancreatic carcinoma cell line, U87-MG human brain carcinoma cell line, SH-SY5Y human brain carcinoma cell line, RPMI-8226 human bone carcinoma cell line, HT1080 human fibrosarcoma cell line, PC-3 human prostatic carcinoma cell line, AGS human gastric adenocarcinoma cell line, and BGC-823 human gastric adenocarcinoma cell line were purchased from the Cell Bank of the Chinese Academy of Sciences.
(§2) The positive control is bufalin (formulated according to the common method), its purity is 98% or more by HPLC-UV and its structure is identified by NMR. The compounds to be tested and the positive control were diluted with normal saline with a concentration gradient of 10^−4 M, 10^−5 M, 10^−6 M, 10^−7 M and 10^−8 M.
(§3) According to cell growth rate, tumor cells in the log phase of growth were seeded into 96-well culture plates at 100 μL per well, and allowed to attach for 24 hours, followed by addition of a test compound or positive control at 10 μL per well. For each concentration, the test was carried out in triplicate wells. Solvent control wells with addition of normal saline into cell culture and a blank well containing only cell culture medium but without cells for zeroing were also included. The tumor cells were incubated for 72 hours at 37° C. under 5% CO2, and then the culture medium (RPMI-1640) was removed. The cells were fixed with 10% cool TCA by incubating for 1 h at 4° C., washed with distilled water for 5 times, and dried naturally in the air. A solution of SRB (Sigma) (4 mg/mL) in 1% glacial acetic acid was added at 100 μL per well, and the cells were stained for 15 minutes at room temperature, and the supernatant was discarded. The plates were washed for 5 times with 1% acetic acid, and dried in air. Finally, Tris solution was added at 150 μL per well, and the absorbance (A) was measured at a wavelength of 515 nm using a microplate reader. The growth inhibition on tumor cell proliferation was calculated according to the following equation:
(§4) Growth Inhibition (%)=[(Absorbance of negative control−Absorbance of blank)−(Absorbance of sample−Absorbance of blank)]/(Absorbance of negative control−Absorbance of blank)×100%
(§5) Drug concentration: 10 μM, 1 μM, 0.1 μM, 10 nM, 1 nM, 0.1 nM.
(§6) IC50 was fitted by GraphPad Prism 4.

Data set [2] relates to PC-3 human prostatic carcinoma cell line. Put plainly: In vitro antitumor activity assay (SRB), PC-3. The data set is classed as cell-based.
Source text: as §1, §2, §3, §4, §5, §6

For data set [3], the system named is MV-4-11 human leukemic cell line. The data set is described as follows: In vitro antitumor activity assay (SRB), MV-4-11. The data set is classed as cell-based. Conditions: MV-4-11, 72 h, Table 3.
Source text: as §1, §2
(§7) According to cell growth rate, tumor cells in the log phase of growth were seeded into 96-well culture plates at 100 μL per well, and allowed to attach for 24 hours, followed by addition of a test compound or positive control at 10 μL per well. For each concentration, the test was carried out in triplicate wells. […] Finally, Tris solution was added at 150 μL per well, and the absorbance (A) was measured at a wavelength of 515 nm using a microplate reader. The growth inhibition on tumor cell proliferation was calculated according to the following equation:
(§8) Growth Inhibition (%)=[(Absorbance of negative control−Absorbance of blank)−(Absorbance of sample−Absorbance of blank)]/(Absorbance of negative control−Absorbance of blank)×100% […]

In data set [4] the test system is DAUDI human leukemic cell line. The data set is described as follows: In vitro antitumor activity assay (SRB), Daudi. The data set is classed as cell-based. Particulars: 72 h, Table 3.
Source text: as §1, §2, §7, §8

For data set [5], the system named is HT1080 human fibrosarcoma cell line. Put plainly: In vitro antitumor activity assay (SRB), HT1080. Conditions: HT1080, 72 h, Table 3. The data set is classed as cell-based.
Source text: as §1, §2, §7, §8

The subject of data set [6] is NCI-H460 human lung carcinoma cell line. The data set is described as follows: In vitro antitumor activity assay (SRB), NCI-H460. The data set is classed as cell-based. Conditions: NCI-H460, 72 h, Table 3.
Source text: as §1, §2, §7, §8

Data set [7] deals with NCI-H2228 human lung carcinoma cell line. Put plainly: In vitro antitumor activity assay (SRB), NCI-H2228. The data set is classed as cell-based. Particulars: NCI-H2228, 72 h, Table 3.
Source text: as §1, §2, §7, §8

Data set [8] relates to AGS human gastric adenocarcinoma cell line. Put plainly: In vitro antitumor activity assay (SRB), AGS. It is filed as cell-based. Particulars: 72 h, Table 3.
Source text: as §1, §2, §7, §8

Data set [9] has as its system HepG2 human-derived tumor cell line. Put plainly: In vitro antitumor activity assay (SRB), HepG2. It is filed as cell-based. Particulars: HepG2, 72 h, Table 3.
The test system of data set [10] is QGY-7703 human hepatic carcinoma cell line. Put plainly: In vitro antitumor activity assay (SRB), QGY7703. The data set is classed as cell-based. Conditions: QGY7703, 72 h, Table 3.
Source text: as §1, §2, §7, §8

Data set [11] concerns A431 human skin carcinoma cell line. Put plainly: In vitro antitumor activity assay (SRB), A431. The data set is classed as cell-based. Particulars: A431, 72 h, Table 3.
Source text: as §1, §2, §7, §8

In data set [12] the test system is U87-MG human brain carcinoma cell line. The data set is described as follows: In vitro antitumor activity assay (SRB), U87-MG. Particulars: 72 h, Table 3. The data set is classed as cell-based.
Source text: as §1, §2, §7, §8

In data set [13] the test system is human non-small cell lung carcinoma A549 xenograft. The data set is described as follows: In vivo therapeutic effect against A549 xenograft in nude mice. Conditions: for inhibition of growth of human lung carcinoma A549 xenograft, in words: A549 xenograft in nude mice, bufalin at 1.6 mg/kg; for Inhibition Rate (%) / Tumor Weight(g) Mean ± SE: A549 xenograft, after 21 days. Here is the method: This experiment is to evaluate the in vivo therapeutic effects of compounds bufalin, II1D-06.HCl, II1E-01.HCl and II1B-02.HCl against human-derived lung carcinoma A549 cell xenograft in nude mice.
Solvent control: 4% DMSO & 2% Tween-80 & 5% PEG-400 solution in normal saline
Compounds to be tested: bufalin, II1B-02.HCl, II1E-01.HCl, II1D-06.HCl
Formulating method: the compound was dissolved with DMSO into a stock solution, which was then diluted into an injection with a final DMSO concentration of 4%.
Positive control: Rapamycin Formulating method: it was formulated into an injection with a final DMSO concentration of 4%.
(§9) After the tumor size reaches about 200 mm^3, the mice bearing the tumor were grouped randomly into 8 groups according to the tumor size, including the groups of solvent control, positive control rapamycin 5 mg/kg, II1E-01.HCl 2 mg/kg, II1E-01.HCl 4 mg/kg, II1E-01.HCl 6 mg/kg, II1B-02.HCl 4 mg/kg, II1D-06.HCl 4 mg/kg, bufalin 1.6 mg/kg, wherein the dosage selection is based on that the maximum tolerable dosage is 1.6 mg/kg for bufalin and 6 mg/kg for II1E-01.HCl. Rapamycin was administered intravenously once a week (QW) and the other groups were administered intraperitoneally once every other day (QOD). The tumor was weighted after 21 days to calculate the inhibition rate. The equation for calculating inhibition rate (IR) is IR=(WC−WT)/WC×100%, wherein, WC represents the tumor weight of the control group, and WT represents the tumor weight of the treating group.

Data set [14] can be described thus: Maximum tolerable dosage (basis of dosage selection). Particulars: in vivo. The protocol: as §9

The structures appear in SMILES notation. Read-outs that look alike come from different tables or passages of the source.

For `C[C@]12CC[C@H](OC(=O)NC3CCNCC3)C[C@H]1CC[C@@H]1[C@@H]2CC[C@]2(C)[C@@H](c3ccc(=O)oc3)CC[C@]12O.Cl` [II1E-01•HCl], the IC50 in data set [1] (MCF-7, 72 h, Table 3, read-out: IC50 (72 h), MCF-7) came out at 10.8 ± 1.08 nM; in [2] (PC-3, 72 h, Table 3, read-out: IC50 (72 h), PC-3) it was 0.3 ± 0.08 nM; in [3], 0.64 ± 0.11 nM; in [4], 2.34 ± 0.22 nM; in data set [5], 2.34 ± 0.1 nM; in data set [6], 0.67 ± 0.03 nM. In addition, the IC50 in data set [7] came to 1.62 ± 0.5 nM; in data set [8], 9.35 ± 0.53 nM; in data set [9] it was 0.33 ± 0.02 nM; in [10], 1.72 ± 0.08 nM; in [11] it was 3.31 ± 0.09 nM; in data set [12], 1.98 ± 0.3 nM. Also, the “inhibition of growth of human lung carcinoma A549 xenograft, in words” value in [13] is on record as “significantly inhibit the growth”. Besides, the “Inhibition Rate (%)” value was found to be 32.43% in [13] (2 mg/kg ip QOD), 70.57% in data set [13] (4 mg/kg ip QOD) and 87.70% in [13] (6 mg/kg ip QOD). The “Tumor Weight(g) Mean ± SE” value in [13] (2 mg/kg ip QOD) amounted to 1.1375 ± 0.1044 g; in data set [13] (4 mg/kg ip QOD), 0.4953 ± 0.0301 g; in [13] (6 mg/kg ip QOD), 0.2070 ± 0.0193 g. In data set [14], this molecule had a maximum tolerable dosage of 6 mg/kg.

Take `C[C@]12CC[C@H](O)C[C@H]1CC[C@@H]1[C@@H]2CC[C@]2(C)[C@@H](c3ccc(=O)oc3)CC[C@]12O` [bufalin, reference compound]: the IC50 in [1] (Homo sapiens, MCF7, MCF-7, 72 h, Table 3, read-out: IC50 (72 h), MCF-7) came to 45.9 ± 5.18 nM; in [1] (Homo sapiens, MCF7, MCF-7, Table 2, read-out: IC50, inhibition of cell proliferation, MCF-7), 28.8 ± 3.71 nM; in data set [2] (Homo sapiens, Prostatic carcinoma cell, PC-3, 72 h, Table 3, read-out: IC50 (72 h), PC-3), 5 ± 0.45 nM; in [2] (Homo sapiens, Prostatic carcinoma cell, PC-3, Table 2, read-out: IC50, inhibition of cell proliferation, PC-3), 17.3 ± 2.76 nM; in data set [3] (Homo sapiens, MV4-11), 6.26 ± 2.22 nM; in [4] (Homo sapiens), 12.6 ± 0.76 nM. The IC50 worked out at 11.3 ± 0.38 nM in [5] (Homo sapiens, HT-1080); 6.89 ± 0.87 nM in data set [6] (Homo sapiens); 16.1 ± 2.51 nM in data set [7] (Homo sapiens); 51.8 ± 1.34 nM in data set [8] (Homo sapiens); 6.02 ± 0.71 nM in [9] (Homo sapiens); 12.8 ± 0.47 nM in data set [10] (Homo sapiens, QGY-7703). For the same molecule, the IC50 in data set [11] (Homo sapiens, A-431) amounted to 26.6 ± 5.35 nM; in data set [12] (Homo sapiens, U-87 MG), 13 ± 1.74 nM. Further, the “inhibition of growth of human lung carcinoma A549 xenograft, in words” value in data set [13] is on record as “did not express strong inhibitory activity”. The “Inhibition Rate (%)” value in data set [13] (1.6 mg/kg ip QOD) amounted to 8.99%. Also, the “Tumor Weight(g) Mean ± SE” value in data set [13] (1.6 mg/kg ip QOD) was found to be 1.5320 ± 0.0624 g. In addition, the maximum tolerable dosage in data set [14] (mouse) is 1.6 mg/kg.

The record behind these values is US20130005696A1, “BUFADIENOLIDE DERIVATIVES, PREPARING PROCESS THEREOF, COMPOSITION COMPRISING THE SAME AND THE USE THEREOF” (priority 2011, published 2013).
